Legend:
IL-6 = experiment: LPS-induced IL-6 secretion reduction in RAW264.7 cells (ELISA); format: cell-based, mouse; settings: sample 100 μg/ml 1 h, then LPS 1 μg/ml 24 h, Table 2
Method: In DMEM (Dulbecco Modified Eagle Medium, Hyclone, Thermo Scientific) medium to which 10% Fetal Bovine Serum was added, RAW264.7 cells, a mouse macrophage family, were suspended at a concentration of 1×10^5 cells/ml, and culture was conducted in a 5% CO2 humidified incubator at 37° C. The cultured RAW264.7 cells were inoculated into a 48 well plate by 5×10^4 cells/ml and stabilized for 15 hours. Then, the culture solution was treated with a glycerol derivative compounds of the type shown in Table 2 and 3 below for 1 hour and then was treated with 1 μg/ml of Lipopolysaccaride (LPS) of a cell stimulator, and subsequent further incubation was conducted for 24 hours. Thereafter 0.5 ml of the culture supernatant was collected for each well and centrifuged (at 3000 rpm, 5 minutes) to recover the supernatant. The IL-6 level in the recovered supernatant was measured according to the manual provided by the Mouse IL-6 ELISA set (BD Biosciences). The day before ELISA was carried out, the IL-6 capture antibody was diluted in phosphate buffered saline, coated on a microwell, and then stored at 4° C. overnight. Each well was washed three times with a buffer solution and then blocked with 2% Bovine Serum Albumin (BSA) for 1 hour at room temperature. After washing with buffer solution three times, […] of sample was dispensed into each well and left at room temperature for 2 hours. Detection antibody which was washed 3 times with washing buffer solution and diluted was dispensed into each well and allowed to react at room temperature for 1 hour and left at room temperature for 1 hour. Thereafter, the secondary HRP conjugated antibody was reacted at room temperature for 30 minutes, washed three times with a buffer solution, and treated with 50 μl of stop solution for each well, and then the optical density was measured at 450 nm with an ELISA microplate leader. The results of the IL-6 expression reduction rate (IL-6 concentration) are shown in Table 2, Table 3, FIG. 1 and FIG. 2 below.

STAT3 = experiment: IL-6-induced STAT3 activity, SEAP expression in HEK-Blue IL-6 cells; format: cell-based; settings: HEK-Blue IL-6 cells; for decrease of STAT3 activity compared to the IL-6 cytokine-treated group: 100 μg/ml; for STAT3 activity_SEAP expression(%) (average ± deviation): sample 100 μg/ml 1 h, then IL-6 5 ng/ml 24 h, negative control = 100
Method: HEK-Blue™ IL-6 cells were used to confirm STAT3 activity by STAT3-induced SEAP (secreted embryonic alkaline phosphatase) expression. In DMEM (Hyclone, Thermo Scientific) medium to which 10% Fetal Bovine Serum was added, HEK-Blue™ IL-6 cells were cultured at a concentration of 1×10^5 cells/ml, and maintained in a 5% CO2 humidified incubator at 37° C. The cultured HEK-Blue™ IL-6 cells were inoculated by 1×10^5 cells/ml. Then, the culture solution was treated with a glycerol derivative compounds of the type shown in Table 4 below for 1 hour and then IL-6 (5 ng/ml) was further incubated for 24 hours for STAT3 activity. Thereafter, the culture supernatant was collected for each well and centrifuged (at 3000 rpm, 5 minutes) to recover the supernatant. The SEAP expression level in the recovered supernatant was mixed with Quanti blue reagent and the supernatant at a ratio of 1:10 and left at 37° C. for about 30 minutes. Then, the SEAP concentration was confirmed at 650 nm wavelength using a spectrophotometer, and the results (STAT3 activity inhibitory ability) thereof are shown in Table 4 and FIG. 3 below.

CXCL8 (IL-8) = CXCL8 (IL-8) expression reduction in Gemcitabine-treated THP-1 cells (ELISA); format: cell-based, human; settings: THP-1 cells; for CXCL8 [IL-8] concentration (average ± deviation): sample 100 μg/ml 1 h, then Gemcitabine 2 μg/ml 24 h
Method: In RPMI (Hyclone, Thermo Scientific) medium to which 10% Fetal Bovine Serum was added, THP-1 cells, a human macrophage family, were suspended at a concentration of 1×10^5 cells/ml, and culture was conducted in a 5% CO2 humidified incubator at 37° C. The cultured THP-1 cells were inoculated into a 12 well plate by 1×10^6 cells/ml and stabilized for 30 minutes. Then, the culture solution was treated with a glycerol derivative compounds of the type shown in Table 6 below for 1 hour and then was treated with Gemcitabine (2 μg/ml) of a cell stimulator, and subsequent further incubation was conducted for 24 hours. Thereafter 1.5 ml of the culture supernatant was collected for each well and centrifuged (at 3000 rpm, 5 minutes) to recover the supernatant. The CXCL8 (IL-8) level in the recovered supernatant was measured according to the manual provided by the human IL-8 ELISA set (BD Biosciences). The day before ELISA was carried out, the IL-8 capture antibody was diluted in phosphate buffered saline, coated on a microwell, and then stored at 4° C. overnight. Each well was washed three times with a buffer solution and then blocked with 2% Bovine Serum Albumin (BSA) for 1 hour at room temperature. After washing with washing buffer solution three times, 100 μl of sample was dispensed into each well and left at room temperature for 2 hours. Detection antibody which was washed 3 times with washing buffer and diluted was dispensed into each well and allowed to react at room temperature for 1 hour and left at room temperature for 1 hour. Thereafter, the secondary HRP conjugated antibody was reacted at room temperature for 30 minutes, washed three times with a washing buffer, and treated with 50 μl of stop solution for each well, and then the optical density was measured at 450 nm with an ELISA microplate leader.

HL-60 cells = experiment: Migration of HL-60 cell line toward THP-1 culture supernatant (transmigration assay); format: cell-based, human; settings: supernatant of THP-1 cells treated with sample 100 μg/ml 1 h, then Gemcitabine 2 μg/ml 24 h
Method: In RPMI (Hyclone, Thermo Scientific) medium to which 10% Fetal Bovine Serum was added, THP-1 cells, a human macrophage family, were subcultured at a concentration of 1×10^5 cells/ml, and culture was conducted in a 5% CO2 humidified incubator at 37° C. In order to prepare the THP-1 cell culture solution to be treated in the lower well during the transmigration assay, first, the cultured THP-1 cells were inoculated into a 12 well plate by 1×10^6 cells/ml and stabilized for 30 minutes. Then, the culture solution was treated with a glycerol derivative compounds of the type shown in Table 7 below for 1 hour and then was treated with Gemcitabine (2 μg/ml) of a cell stimulator, and subsequent further incubation was conducted for 24 hours. Thereafter 1.5 ml of the culture supernatant was collected for each well and centrifuged (at 3000 rpm, 5 minutes) to recover the supernatant. The CXCL8 (IL-8) level in the recovered supernatant was measured according to the manual provided by Cultrex 96 well Laminin Cell Invasion assay. The day before Transmigration assay was carried out, a 1× Lamin I solution was treated in the upper Invasion Chamber and coated. Thereafter, in RPMI (Hyclone, Thermo Scientific) medium to which 10% Fetal Bovine Serum was added, the cultured HL-60 cells were despensed of 5×10^4 cells/chamber, and 150 μl of the THP-1 culture supernatant prepared in advance was added to the lower chamber. Thereafter the upper chamber was removed, and the cells were attached to the bottom of the lower chamber by a centrifuge, and then the supernatant was removed. Cell dissociation/Calcein-AM solution was added and reacted for 1 hour. Then, the value obtained using a fluorescence spectroscopy was calculated by converting the number of cells.

STAT6 = experiment: IL-4-induced STAT6 activity, pGL4-STAT6 luciferase reporter in A549 cells; format: cell-based; settings: sample 100 μg/ml 1 h, then IL-4 (2 ng/ml) 20 h, Table 9
Method: In DMEM (Dulbecco Modified Eagle Medium, Hyclone, Thermo Scientific) medium to which 10% Fetal Bovine Serum was added, A549 cells were subcultured at a concentration of 1×10^5 cells/ml, and culture was conducted in a 5% CO2 humidified incubator at 37° C. The cultured A549 cells were inoculated into a 48 well plate by 1×10^5 cells/ml and stabilized for 18 hours. Thereafter, pGL4-STAT6 reporter vector containing a STAT6 binding promoter portion was mixed with Attractene to induce complex formation at room temperature for 15 minutes. This complex was treated with the cells and then further incubated for 24 hours. Thereafter, the culture solution was treated with a glycerol derivative compounds of the type shown in Table 9 and 10 below for 1 hour, and then IL-4 (2 ng/ml or 10 ng/ml) was further incubated for 20 hours for STAT6 activity. Thereafter, the culture supernatant was removed for each well, and the remaining cells were lysed with a cell lysis buffer, and then cell lysate was recovered. 90 μl of luciferase reagent was mixed with 10 μl of the recovered cell lysate, and the degree of fluorescence was confirmed using a luminometer. The results are shown in Table 9, Table 10, FIG. 9 and FIG. 10 below.

IL-4 = experiment: PKC activator-induced IL-4 secretion reduction in EL-4 cells (ELISA); format: cell-based, mouse; settings: sample 100 μg/ml 2 h, then PKC activator 18 h, Table 11
Method: In DMEM (Dulbecco Modified Eagle Medium, Hyclone, Thermo Scientific) medium to which 10% Fetal Bovine Serum was added, EL-4 cells, a mouse lymphoma family, were subcultured at a concentration of 1×10^5 cells/ml, and culture was conducted in a 5% CO2 humidified incubator at 37° C. The cultured EL-4 cells were inoculated into a 48 well plate by 5×10^4 cells/ml and stabilized for 30 hours. Then, the culture solution was treated with a glycerol derivative compounds of the type shown in Table 11 and 12 below for 2 hours. Thereafter, it were treated with 0.5 μg/ml of PKC activator (p10, some kind of PMA) of a cell stimulator, and subsequent further incubation were conducted for 18 hours. Thereafter 0.5 ml of the culture supernatant was collected for each well and centrifuged (at 3000 rpm, 5 minutes) to recover the supernatant. The IL-4 level in the recovered supernatant was measured according to the manual provided by the Mouse IL-4 ELISA set (BD Biosciences). The day before ELISA was carried out, the IL-4 capture antibody was diluted in phosphate buffered saline, coated on a microwell, and then stored at 4° C. overnight. Each well was washed three times with a buffer solution and then blocked with 2% Bovine Serum Albumin (BSA) for 1 hour at room temperature. After washing with buffer solution three times, 100 μl of sample was dispensed into each well and left at room temperature for 2 hours. Detection antibody which was washed 3 times with washing buffer solution and diluted was dispensed into each well and allowed to react at room temperature for 1 hour and left at room temperature for 1 hour. Thereafter, the secondary HRP conjugated antibody was reacted at room temperature for 30 minutes, washed three times with buffer solution, and treated with 50 μl of stop solution for each well, and then the optical density was measured at 450 nm with an ELISA microplate leader. The results of the measured expression reduction rate ([…]) were shown in Table 11, Table 12, FIG. 11 and FIG. 12 below.

## CCCCC/C=C\C/C=C\CCCCCCCC(=O)OC(COC)COC(=O)CCCCCCCCCCCCCCC (centres unmarked) [EC_A13]
IL-6
  IL-6 concentration (average ± deviation): 0.266 ± 0.024 µg/mL
STAT3
  decrease of STAT3 activity compared to the IL-6 cytokine-treated group: about 25%
  STAT3 activity_SEAP expression(%) (average ± deviation): 167.2 ± 8.4%
CXCL8 (IL-8)
  CXCL8 [IL-8] concentration (average ± deviation): 96.6 ± 0.2 pg/µL
HL-60 cells
  Number of HL-60 cells migrated through Transwell: 8679.7 Cell Number
STAT6
  STAT6 activity_Luciferase activity (average ± deviation): 1150.2 ± 44.9

## CCCCC/C=C\C/C=C\CCCCCCCC(=O)OC(COCC)COC(=O)CCCCCCCCCCCCCCC (centres unmarked) [EC_A14]
IL-6
  IL-6 concentration (average ± deviation): 0.277 ± 0.002 µg/mL
STAT3
  STAT3 activity_SEAP expression(%) (average ± deviation): 185.0 ± 30.0%
STAT6
  STAT6 activity_Luciferase activity (average ± deviation): 539.2 ± 40.3

## CCCCC/C=C\C/C=C\CCCCCCCC(=O)OC(COCCC)COC(=O)CCCCCCCCCCCCCCC (centres unmarked) [EC_A15]
IL-6
  IL-6 concentration (average ± deviation): 0.125 ± 0.003 µg/mL
STAT3
  STAT3 activity_SEAP expression(%) (average ± deviation): 232.0 ± 50.4%
CXCL8 (IL-8); Gemcitabine-treated, 100 μg/ml
  reduction of CXCL8 (IL-8) expression/secretion: about 20%
CXCL8 (IL-8)
  CXCL8 [IL-8] concentration (average ± deviation): 73.8 ± 0.0 pg/µL
HL-60 cells
  Number of HL-60 cells migrated through Transwell: 28884.8 Cell Number
STAT6
  STAT6 activity_Luciferase activity (average ± deviation): 707.5 ± 51.3

## CCCCC/C=C\C/C=C\CCCCCCCC(=O)OC(COC(=O)CCCCCCCCCCCCCCC)COC(=O)c1ccccc1 (centres unmarked) [EC_A16]
IL-6
  IL-6 concentration (average ± deviation): 0.238 ± 0.008 µg/mL
STAT3
  decrease of STAT3 activity compared to the IL-6 cytokine-treated group: about 25%
  STAT3 activity_SEAP expression(%) (average ± deviation): 171.1 ± 17.5%
CXCL8 (IL-8)
  CXCL8 [IL-8] concentration (average ± deviation): 135.1 ± 2.3 pg/µL
HL-60 cells
  Number of HL-60 cells migrated through Transwell: 26348.9 Cell Number
STAT6
  STAT6 activity_Luciferase activity (average ± deviation): 964.5 ± 170.3

## CCCCC/C=C\C/C=C\CCCCCCCC(=O)OC(COC(=O)CCC)COC(=O)CCCCCCCCCCCCCCC (centres unmarked) [EC_A17]
IL-6
  IL-6 concentration (average ± deviation): 0.154 ± 0.001 µg/mL
STAT3
  decrease of STAT3 activity compared to the IL-6 cytokine-treated group: about 25%
  STAT3 activity_SEAP expression(%) (average ± deviation): 185.4 ± 19.3%
CXCL8 (IL-8)
  CXCL8 [IL-8] concentration (average ± deviation): 110 ± 0.2 pg/µL
HL-60 cells
  Number of HL-60 cells migrated through Transwell: 30692.8 Cell Number
STAT6
  STAT6 activity_Luciferase activity (average ± deviation): 476.2 ±113.4

## CCCCC/C=C\C/C=C\CCCCCCCC(=O)OC(COC(=O)CCCCCCCCCCCCCCC)COC(=O)C(C)CC (centres unmarked) [EC_A20]
IL-6
  IL-6 concentration (average ± deviation): 0.055 ± 0.001 µg/mL
STAT3
  STAT3 activity_SEAP expression(%) (average ± deviation): 196.7 ± 35.1%
STAT6
  STAT6 activity_Luciferase activity (average ± deviation): 609.5 ± 197.0
IL-4
  IL-4 concentration (average ± deviation): 194.2 ± 47.5 pg/µL

## CCCCC/C=C\C/C=C\CCCCCCCC(=O)OC(COC(=O)CCCCCCCCCCCCCCC)COC(=O)C(C)(C)C (centres unmarked) [EC_A22]
STAT3
  decrease of STAT3 activity compared to the IL-6 cytokine-treated group: about 25%
  STAT3 activity_SEAP expression(%) (average ± deviation): 169.5 ± 10.5%
HL-60 cells
  Number of HL-60 cells migrated through Transwell: 1181.1 Cell Number
STAT6
  STAT6 activity_Luciferase activity (average ± deviation): 645.5 ± 111.4

## CCCCC/C=C\C/C=C\CCCCCCCC(=O)OC(COC(=O)CN)COC(=O)CCCCCCCCCCCCCCC (centres unmarked) [EC_A57]
IL-6
  IL-6 concentration (average ± deviation): 0.120 ± 0.002 µg/mL
STAT3
  STAT3 activity_SEAP expression(%) (average ± deviation): 243.0 ± 29.5%
IL-4
  IL-4 concentration (average ± deviation): 745.6 ± 8.35 pg/µL

Reference: US12187672B2, “1,2-diacylglycerol compound, preparation method therefor, and immunomodulator containing same as active ingredient” (ENZYCHEM LIFESCIENCES CORPORATION, priority 2018, dated 2025)
